From patent US4234579A, “Penicillanic acid 1,1-dioxides as β-lactamase inhibitors” (priority 1979, dated 1980)
Where two headings read alike, the source gives them in different places.

How the values were obtained:
Assay in all cases: Mode MIC of antibiotic and PA 1,1-Dioxide alone and in combination
Type in all cases: cell-based
[1] = tested on: Staphylococcus aureus; details: 20 strains; for MIC: Staphylococcus aureus, 18 h, alone, read-out: Mode MIC alone
Source text: (§1) As indicated hereinbefore, the compounds of formula I, wherein R^1 is hydrogen or an ester-forming residue readily hydrolyzable in vivo, are antibacterial agents of medium potency. […] The procedure which is followed is the one recommended by the International Collaborative Study on Antibiotic Sensitivity Testing (Ericcson and Sherris, Acta. Pathologica et Microbiologia Scandinav, Supp. 217, Section B: 64-68 [1971]), and employs brain heart infusion (BHI) agar and the inocula replicating device. Overnight growth tubes are diluted 100 fold for use as the standard inoculum (20,000-10,000 cells in approximately 0.002 ml. are placed on the agar surface; 20 ml. of BHI agar/dish). Twelve 2 fold dilutions of the test compound are employed, with initial concentration of the test drug being 200 mcg./ml. Single colonies are disregarded when reading plates after 18 hrs. at 37° C. The susceptibility (MIC) of the test organism is accepted as the lowest concentration of compound capable of producing complete inhibition of growth as judged by the naked eye.
(§2) The manner in which the said compounds of the formula I increase the effectiveness of a β-lactam antibiotic can be appreciated by reference to experiments in which the MIC of a given antibiotic alone, and a compound of the formula I wherein R^1 is hydrogen, alone, are measured. These MIC's are then compared with the MIC values obtained with a combination of the given antibiotic and the compound of the formula I wherein R^1 is hydrogen. […] The MIC values of combinations are measured using the method described by Barry and Sabath in "Manual of Clinical Microbiology", edited by Lenette, Spaulding and Truant, 2nd Edition, 1974, American Society for Microbiology.
(§3) From Table II, it can be seen that against 19 ampicillin-resistant strains of Staphylococcus aureus, the mode MIC of ampicillin, and of penicillanic acid 1,1-dioxide, is 200 mcg./ml. […] The other entries in Table II show enhancement of the antibacterial effectiveness of ampicillin against 26 ampicillin resistant strains of Haemophilus influenzae, 18 ampicillin resistant strains of Klebsiella pneumoniae, and 15 strains of the anerobe Bacteroides fragilis. Tables III, IV and V show enhancement of the antibacterial potency of benzylpenicillin (penicillin G) carbenicillin (α-carboxybenzylpenicillin) and cefazolin, respectively, against strains of S. aureus, H. influenzae, K. pneumoniae and Bacteroides fragilis.

[2] = tested on: Haemophilus influenzae; details: 25 strains; for MIC: Haemophilus influenzae, 18 h, alone, read-out: Mode MIC alone
Source text: as §1, §2, §3

[3] = tested on: Klebsiella pneumoniae; details: for MIC: Klebsiella pneumoniae, 18 h, alone, read-out: Mode MIC alone
Source text: as §1, §2, §3

[4] = tested on: Bacteroides fragilis; details: 15 strains; for MIC: Bacteroides fragilis, 18 h, alone, read-out: Mode MIC alone
Source text: as §1, §2, §3

[5] = Table V, Cefazolin + PA 1,1-Dioxide in combination
[6] = Table IV, carbenicillin + PA 1,1-Dioxide in combination

| SMILES | MIC ([1]; Table V) [µg/mL] | Mode MIC's of Cefazolin and PA 1,1-Dioxide in Combination [1, 5] [µg/mL] | MIC ([2]; Table V) [µg/mL] | Mode MIC's of Cefazolin and PA 1,1-Dioxide in Combination [2, 5] [µg/mL] | MIC ([3]; Table V, 3 strains) [µg/mL] | Mode MIC's of Cefazolin and PA 1,1-Dioxide in Combination ([3]; Table V, 3 strains, Cefazolin + PA 1,1-Dioxide in combination) [µg/mL] | MIC ([4]; Table V) [µg/mL] | Mode MIC's of Cefazolin and PA 1,1-Dioxide in Combination [4, 5] [µg/mL] | MIC ([1]; Table IV) [µg/mL] | Mode MIC's of carbenicillin and PA 1,1-Dioxide in combination [1, 6] [µg/mL] | MIC ([2]; Table IV) [µg/mL] | Mode MIC's of carbenicillin and PA 1,1-Dioxide in combination [2, 6] [µg/mL] | MIC ([3]; Table IV, 16 strains) [µg/mL] | Mode MIC's of carbenicillin and PA 1,1-Dioxide in combination ([3]; Table IV, 16 strains, carbenicillin + PA 1,1-Dioxide in combination) [µg/mL] | MIC ([4]; Table IV) [µg/mL] | Mode MIC's of carbenicillin and PA 1,1-Dioxide in combination [4, 6] [µg/mL] |
| --- | --- | --- | --- | --- | --- | --- | --- | --- | --- | --- | --- | --- | --- | --- | --- | --- |
| Cc1nnc(SCC2=C(C(=O)O)N3C(=O)[C@@H](NC(=O)Cn4cnnn4)[C@H]3SC2)s1 [Cefazolin, reference compound] | 0.78 | 0.2 | 25 | 3.12 | 100 | 6.25 | 200 | 6.25 |  |  |  |  |  |  |  |  |
| CC1(C)S[C@@H]2[C@H](NC(=O)C(C(=O)O)c3ccccc3)C(=O)N2[C@H]1C(=O)O (stereo partly drawn) [carbenicillin, α-carboxybenzylpenicillin, reference compound] |  |  |  |  |  |  |  |  | 12.5 | 6.25 | 6.25 | 0.39 | > 400 | 50 | 50 | 3.12 |
